These results are taken from patent publication US20050197350A1, “Novel quinoline, tetrahydroquinazoline, and pyrimidine derivatives and methods of treatment related to the use thereof” (TAISHO PHARMACEUTICAL CO., LTD., priority 2003, published 2005).

This experiment concerns MCH receptors. Put plainly: MCH receptor activity class (method not given).
Where [1] appears, read: class by percent of control at 10^-7 M or IC50.
The mark [2] stands for this setting: MCH receptor, class by percent of control at 10^-7 M or IC50.
[3] abbreviates: activity class per percent of control at 10^-7 M or IC50.

`COc1ccc(CNC[C@H]2CC[C@@H](Nc3nc4c(c(N(C)C)n3)CCCC4)CC2)cc1OC` [compound 1435]: the class under setting [1] was 3 (Class 3 The value of percent of control at 10^−7 M was more than 60% or the value of IC50 was more than 200 nM.).

As to `CN(C)c1nc(N[C@H]2CC[C@@H](NC(=O)NCc3cccc(F)c3)CC2)nc2c1CCCC2` [compound 1873], the class under setting [1] is 3 (Class 3 The value of percent of control at 10^−7 M was more than 60% or the value of IC50 was more than 200 nM.).

On to `CN(C)c1nc(N[C@H]2CC[C@@H](NC(=S)Nc3cc(F)ccc3F)CC2)nc2c1CCCC2` [compound 1935], for which the class under setting [2] is 3 (Class 3 The value of percent of control at 10^−7 M was more than 60% or the value of IC50 was more than 200 nM.).

Regarding `Cc1c(C(=O)N[C@H]2CC[C@@H](Nc3cc(N(C)C)c4ccccc4n3)CC2)cc(-c2ccccc2)n1CCSCc1c(F)cccc1Cl` [compound 752], under setting [1], the class is reported as 3 (Class 3 The value of percent of control at 10^−7 M was more than 60% or the value of IC50 was more than 200 nM.).

For `CN(C)c1cc(N[C@H]2CC[C@@H](NC(=O)c3cccc(C(=O)c4ccccc4)c3)CC2)nc2ccccc12` [compound 733], the class under setting [1] is on record as 3 (Class 3 The value of percent of control at 10^−7 M was more than 60% or the value of IC50 was more than 200 nM.).

For `Cc1ccc(NC(=S)N[C@H]2CC[C@@H](Nc3nc4c(c(N(C)C)n3)CCCC4)CC2)cc1` [compound 1959], under setting [2], the class is listed as 3 (Class 3 The value of percent of control at 10^−7 M was more than 60% or the value of IC50 was more than 200 nM.).

Turning to `CCc1cccc(C(C)C)c1NC(=O)N[C@H]1CC[C@@H](Nc2nccc(N(C)C)n2)CC1` [compound 2196], the class under setting [1] was 3 (Class 3 The value of percent of control at 10^−7 M was more than 60% or the value of IC50 was more than 200 nM.).

For the molecule `CN(C)c1nc(N[C@H]2CC[C@@H](CNC(=O)Cc3ccccc3I)CC2)nc2c1CCCC2` [compound 1069], the class under setting [3] is on record as 3 (Class 3 The value of percent of control at 10^−7 M was more than 60% or the value of IC50 was more than 200 nM.).

As for `CCOc1cc(OCC)c(OCC)cc1CNC[C@H]1CC[C@@H](Nc2cc(N(C)C)c3ccccc3n2)CC1` [compound 1174], the class under setting [1] was 2 (Class 2: The value of percent of control at 10^−7 M was from 40% to 60% or the value of IC′50 was from 50 nM to 200 nM.).

For `CN(C)c1nc(N[C@H]2CC[C@@H](NC(=S)Nc3ccc(Sc4ccc([N+](=O)[O-])cc4)cc3)CC2)nc2c1CCCC2` [compound 2050], the class under setting [2] is on record as 3 (Class 3 The value of percent of control at 10^−7 M was more than 60% or the value of IC50 was more than 200 nM.).

For the molecule `COc1cc([N+](=O)[O-])ccc1NC(=O)N[C@H]1CC[C@@H](Nc2nc3c(c(N(C)C)n2)CCCC3)CC1` [compound 1861], the class under setting [1] was 3 (Class 3 The value of percent of control at 10^−7 M was more than 60% or the value of IC50 was more than 200 nM.).

Turning to `CN(C)c1nc(N[C@H]2CC[C@@H](NC(=O)Nc3ccc4c(c3)OCO4)CC2)nc2c1CCCC2` [compound 1718], the class under setting [1] is reported as 3 (Class 3 The value of percent of control at 10^−7 M was more than 60% or the value of IC50 was more than 200 nM.).

With `CN(C)c1ccnc(N[C@H]2CC[C@@H](CNC(=O)c3ccccc3Br)CC2)n1` [compound 438], the class (class 1-3 by percent of control at 10^-7 M or IC50) is listed as 3 (Class 3 The value of percent of control at 10^−7 M was more than 60% or the value of IC50 was more than 200 nM.).

Take `CN(C)c1nc(N[C@H]2CC[C@@H](NC(=S)Nc3cc(F)cc(F)c3)CC2)nc2c1CCCC2` [compound 1982]: under setting [2], the class is on record as 3 (Class 3 The value of percent of control at 10^−7 M was more than 60% or the value of IC50 was more than 200 nM.).

Turning to `Cc1cnc(N[C@H]2CC[C@@H](C(=O)N[C@@H](C)c3ccc(F)cc3)CC2)nc1N(C)C` [compound 2774, cis-4-{[4-(dimethylamino)-5-methylpyrimidin-2-yl]amino}-N-[(1S)-1-(4-fluorophenyl)ethyl]cyclohexanecarboxamide], the class (class by percent of control at 10^−7 M or IC50) was 2 (Class 2: The value of percent of control at 10^−7 M was from 40% to 60% or the value of IC′50 was from 50 nM to 200 nM.).

As to `CN(C)c1ccnc(N[C@H]2CC[C@@H](NC(=O)Oc3ccc4ccccc4c3)CC2)n1` [compound 1629], the class (activity class 1-3: percent of control at 10^-7 M or IC50) is recorded as 3 (Class 3 The value of percent of control at 10^−7 M was more than 60% or the value of IC50 was more than 200 nM.).

In the case of `Cc1ccc(S(=O)(=O)n2ccc(C(=O)N[C@H]3CC[C@@H](Nc4nc5c(c(N(C)C)n4)CCCC5)CC3)c2)cc1` [compound 1038], the class under setting [3] is recorded as 3 (Class 3 The value of percent of control at 10^−7 M was more than 60% or the value of IC50 was more than 200 nM.).

With `CN(C)c1ccnc(N[C@H]2CC[C@@H](NC(=O)c3cncc(Br)c3)CC2)n1` [compound 306], the class under setting [1] is given as 3 (Class 3 The value of percent of control at 10^−7 M was more than 60% or the value of IC50 was more than 200 nM.).

For the molecule `CN(C)c1nc(N[C@H]2CC[C@@H](NC(=O)Nc3cc(C(F)(F)F)ccc3F)CC2)nc2c1CCCC2` [compound 1859], the class under setting [1] was 3 (Class 3 The value of percent of control at 10^−7 M was more than 60% or the value of IC50 was more than 200 nM.).

With `Cc1ccc(C(=O)N[C@H]2CC[C@@H](Nc3cc(N(C)C)c4ccccc4n3)CC2)c(F)c1F` [compound 60], the class under setting [2] is on record as 3 (Class 3 The value of percent of control at 10^−7 M was more than 60% or the value of IC50 was more than 200 nM.).

For `CN(C)c1ccnc(N[C@H]2CC[C@@H](NC(=O)Nc3ccccc3[N+](=O)[O-])CC2)n1` [compound 2237], under setting [1], the class is 3 (Class 3 The value of percent of control at 10^−7 M was more than 60% or the value of IC50 was more than 200 nM.).

Consider `CN(C)c1cc(N[C@H]2CC[C@@H](CNC(=O)C3c4ccccc4Oc4ccccc43)CC2)nc2ccccc12` [compound 810], for which the class under setting [1] is given as 3 (Class 3 The value of percent of control at 10^−7 M was more than 60% or the value of IC50 was more than 200 nM.).

Regarding `COc1cccc(CNC[C@H]2CC[C@@H](Nc3nccc(N(C)C)n3)CC2)c1O` [compound 1317], the class under setting [1] was 3 (Class 3 The value of percent of control at 10^−7 M was more than 60% or the value of IC50 was more than 200 nM.).

As to `CN(C)c1nc(N[C@H]2CC[C@@H](NC(=S)NCCN3CCOCC3)CC2)nc2c1CCCC2` [compound 2074], under setting [2], the class was 3 (Class 3 The value of percent of control at 10^−7 M was more than 60% or the value of IC50 was more than 200 nM.).

Consider `COc1ccc(Oc2ccc([N+](=O)[O-])cc2C(=O)N[C@H]2CC[C@@H](Nc3nccc(N(C)C)n3)CC2)cc1` [compound 326, N-(cis-4-{[4-(dimethylamino)pyrimidin-2-yl]amino}cyclohexyl)-2-(4-methoxyphenoxy)-5-nitrobenzamide], for which the class under setting [1] is reported as 1 (Class 1: The value of percent of control at 10^−7 M was less than 40% or the value of IC50 was less than 50 nM.).

Turning to `CN(C)c1cc(NC2CCC(CNC(=O)OCc3ccc([N+](=O)[O-])cc3)CC2)nc2ccccc12` (stereo not shown) [compound 183], the class under setting [2] is on record as 3 (Class 3 The value of percent of control at 10^−7 M was more than 60% or the value of IC50 was more than 200 nM.).

With `CN(C)c1cc(N[C@H]2CC[C@@H](NC(=O)c3ccc(Br)s3)CC2)nc2ccccc12` [compound 673], the class under setting [1] was 2 (Class 2: The value of percent of control at 10^−7 M was from 40% to 60% or the value of IC′50 was from 50 nM to 200 nM.).

For the molecule `CN(C)c1ccnc(N[C@H]2CC[C@@H](NC(=O)Cc3ccc(F)cc3)CC2)n1` [compound 286], the class under setting [1] is 3 (Class 3 The value of percent of control at 10^−7 M was more than 60% or the value of IC50 was more than 200 nM.).

For `Cc1ccc(NC(=O)N[C@H]2CC[C@@H](Nc3nc4c(c(N(C)C)n3)CCCC4)CC2)c([N+](=O)[O-])c1` [compound 1832], the class under setting [1] is 3 (Class 3 The value of percent of control at 10^−7 M was more than 60% or the value of IC50 was more than 200 nM.).

Regarding `CN(C)c1cc(N[C@H]2CC[C@@H](NC(=O)c3ccccc3SC(F)F)CC2)nc2ccccc12` [compound 82], under setting [2], the class was 3 (Class 3 The value of percent of control at 10^−7 M was more than 60% or the value of IC50 was more than 200 nM.).

For `CN(C)c1cc(N[C@H]2CC[C@@H](NC(=O)C(CC(=O)c3ccccc3)c3c[nH]c4ccccc34)CC2)nc2ccccc12` (relative stereo) [compound 716, N-(cis-4-{[4-(dimethylamino)quinolin-2-yl]amino}cyclohexyl)-2-(1H-indol-3-yl)-4-oxo-4-phenylbutanamide], the class under setting [1] is 2 (Class 2: The value of percent of control at 10^−7 M was from 40% to 60% or the value of IC′50 was from 50 nM to 200 nM.).

Regarding `CN(C)c1ccnc(N[C@H]2CC[C@@H](NC(=O)Cc3ccc(Cl)cc3)CC2)n1` [compound 246], the class under setting [1] is listed as 3 (Class 3 The value of percent of control at 10^−7 M was more than 60% or the value of IC50 was more than 200 nM.).

As for `CN(C)c1cc(N[C@H]2CC[C@@H](NC(=O)NCc3ccc(F)cc3)CC2)nc2ccccc12` [compound 2155], under setting [1], the class was 3 (Class 3 The value of percent of control at 10^−7 M was more than 60% or the value of IC50 was more than 200 nM.).

Take `Cc1ccc(Oc2ncccc2C(=O)N[C@H]2CC[C@@H](Nc3nccc(N(C)C)n3)CC2)cc1` [compound 355, N-(cis-4-{[4-(dimethylamino)pyrimidin-2-yl]amino}cyclohexyl)-2-(4-methylphenoxy)nicotinamide]: under setting [1], the class is listed as 1 (Class 1: The value of percent of control at 10^−7 M was less than 40% or the value of IC50 was less than 50 nM.).

As to `CCC(C(=O)NC[C@H]1CC[C@@H](Nc2nc3c(c(N(C)C)n2)CCCC3)CC1)c1ccccc1` (relative stereo) [compound 628], the class under setting [1] is reported as 3 (Class 3 The value of percent of control at 10^−7 M was more than 60% or the value of IC50 was more than 200 nM.).

As to `COc1cc([N+](=O)[O-])ccc1C(=O)N[C@H]1CC[C@@H](Nc2nccc(N(C)C)n2)CC1` [compound 910], under setting [1], the class is 3 (Class 3 The value of percent of control at 10^−7 M was more than 60% or the value of IC50 was more than 200 nM.).

In the case of `CN(C)c1nc(N[C@H]2CC[C@@H](CNC(=O)Cc3ccccc3OC(F)(F)F)CC2)nc2c1CCCC2` [compound 1081], under setting [3], the class was 3 (Class 3 The value of percent of control at 10^−7 M was more than 60% or the value of IC50 was more than 200 nM.).
